# Reference: patent US7563781B2, “Triazolopyrimidine derivatives” (Janssen Pharmaceutica NV, priority 2006, dated 2009)
# Where two headings read alike, the source gives them in different places.
# Columns and labels:
# [1] = molecular target: T1, CAK complex (human Cdk7, human Cyclin H, MAT-1) (Homo sapiens, UniProt P50613); experiment: in vitro time-resolved-fluorescence assay for the CAK kinase activity; assay type: biochemical; conditions: compound 20 uM; read-out: CAK % inhib; 20 uM
# T1 construct: made in house; host or cells: SF-900 insect cells co-infected with Flag-Cdk7 and Bab-Cyclin H baculoviruses
# Excerpt: Cyclin Dependent Kinase Activating Kinase (CAK) is a complex of proteins that phosphorylates a well-conserved threonine (Thr) residue in all mammalian cyclin dependent kinases (cdks). The CAK complex can also phosphorylate several components of the transcriptional machinery, such as the C-terminal domain (CTD) of RNA polymerase II in the TFIIH transcription complex. The CAK complex localizes to the nucleus, and is composed of three proteins: Cdk7, Cyclin H, and MAT-1. The exemplified method teaches the cloning and expression CAK subunits, particularly a human Cdk7 and a human Cyclin H. The method of the present invention exemplified herein is equally applicable to the cloning and expression of any CAK subunit, such as variants, structural or functional polymorphisms of the human Cdk7 or the human Cyclin H, or their orthologs in other animals such as rat, mouse, pig, dog and monkey.
# The CAK complex was purified from co-infected SF-900 insect cells at 48 hours post infection by batch immunoaffinity purification. The infected cells were pelleted by centrifugation and lysed in 1/10 of the culture volume in a solution containing 50 mM Hepes pH 7.5, 10 mM MgCl2, 1 mM DTT, 10 mM Beta-Glycerol phosphate, 20 uM Na-oVO4, 0.2 mM PMSF and 1 μg/mL each of leupeptin, aprotinin, and pepstatin on ice. Cells were mechanically lysed by trituration through a 22-gauge needle followed by sonication or alternately by nitrogen cavitation. The lysed cells were centrifuged at 50,000×G for 1 hour at 4° C. to remove debris and the supernatant was applied to 1/10 volume of prewashed Flag-M2 immunoaffinity resin (Sigma). The CAK complex, by nature of the Flag tagged Cdk7 protein, was allowed to bind to the Flag antibody of the resin overnight at 4° C. with gentle rocking. The resin was washed 4 times with 5 resin volumes of lysis buffer and the bound proteins were eluted by competition with 0.5 mg/mL Flag peptide ([…], American Peptide Co, Inc., SEQ ID NO: 16) in a total of 2 resin volumes. To remove the Flag peptide, the eluted material was applied to PD-10 gel filtration columns (Pharmacia) under conditions recommended by the manufacturer.
# Measurement of CAK kinase activity was accomplished using an antibody methodology in which a Europium labeled antibody binds preferentially to serine phosphorylated GST-CTD substrate. The long-lived europium label fluorescence allows a greater signal-to-noise ratio due to the delay in reading the emission wavelength, thereby eliminating signals from immediate fluorescence and fluorescent pharmaceutical screening compounds.
# The time-resolved-fluorescence assay for the CAK kinase activity is performed as follows. In a well of a black glutathione coated 96 well micro titer plate (Pierce Chemical, No. 15360), the following reagents were added: 1) 25 ul substrate solution containing 500 ng purified GST-CTD in a buffer having 50 mM Hepes pH 7.5, 10 mM MgCl2, 1 mM DTT, 0.2 mM PMSF, 40 uM Na-oVO4, and 22 uM ATP (as a background control, the buffer, including ATP but not substrate was added); 2) 2.5 ul of screening compounds in a diluent containing 30% DMSO/25 mM Hepes pH7.5 (As a control, the diluent only was added. Typically the final concentration of compound is 1 uM); and 3) 250 ng CAK enzyme complex in enzyme buffer containing 25 ul of 50 mM Hepes pH 7.5, 10 mM MgCl2, 1 mM DTT, 0.2 mM PMSF, and 40 uM Na-oVO4. The micro titer plate was shaken for 2 minutes on a titer plate shaker and allowed to incubate at 30° C. for 20 minutes.
# Subsequently, Kinase Stop Solution (75 mM EDTA, 0.2 mM PMSF, 1 mM DTT, 120 uM Na oVO4 in PBS) was added (50 ul/well). The plate was shaken for 2 minutes and incubated overnight at room temperature to allow substrate binding to the wells. The plate contents were flicked out, and the wells of the plate were washed 4 times with 350 ul of wash buffer (Delphia wash buffer, Perkin-Elmer, Inc.). The plate was tapped dry. […]
# [2] = molecular target: T2, Focal Adhesion Kinase (full-length Flag-tagged human FAK) (Homo sapiens, UniProt Q05397); experiment: in vitro FAK ELISA kinase assay; assay type: biochemical; conditions: read-out: FAK % Inhib ave: 10 uM
# T2 construct: a purified recombinant full-length Flag-tagged human FAK protein; Flag; made in house; host or cells: baculovirus infected insect cells
# Experimental: Compound effects on the tyrosine kinase activity of Focal Adhesion Kinase were assessed with an in vitro FAK ELISA kinase assay. This assay measures the incorporation of phosphate from ATP into a FAK substrate protein using an antibody specific for phospho-tyrosine.
# 500 ng of FAKsubstrate, a purified recombinant fusion protein of GST and a 73 amino acid region surrounding the Tyr397 human FAK autophosphorylation site, was coated in a high-protein binding polystyrene 96 well plate overnight in a buffer containing 50 mM Hepes, pH 7.5, 150 mM NaCl, 0.1 mM Na-oVO4, 0.1 mM NaF and 1 protease inhibitor tablet/10 mL (Complete Mini-EDTA-free, Roche). The next day this solution was removed and the wells were incubated with 0.2% BSA in 50 mM Hepes, pH 7.5, 150 mM NaCl, 0.2 mM PMSF for 1 hour at 30° C. to block unoccupied protein binding sites. The wells were then washed with 50 mM Hepes, pH 7.5, 150 mM NaCl, 0.1% Tween 20. The kinase reaction was performed with 25 ng/well of FAK enzyme (a purified recombinant full-length Flag-tagged human FAK protein made in baculovirus infected insect cells) in 0.1 mL of a buffer containing 25 mM Hepes, pH 7.5, 5 mM MgCl2, 0.5 mM MnCl2, 10 uM NaoVO4, 0.2 mM PMSF. Compounds were added from 30% DMSO stock solutions for a screening concentration of 10 uM or IC50 determinations from 50 uM in half-log dilutions. The reaction is initiated with addition of ATP to a final concentration of 2 uM and incubated at 30° C. for 1 hour. Following the kinase reaction step, the wells were washed and incubated with 50 ng of Horseradish Peroxidase conjugated anti-phosphotyrosine antibody (PT-66 HRP, Sigma) in 0.1 mL wash buffer for 1 hour at 30° C. Wells were then washed and 0.1 mL HRP substrate, Tetra-methyl Benzidine (Sigma) was added and the color reaction allowed to proceed for 2-3 minutes followed by the addition of 0.1 mL of 1N H2SO4 to stop the HRP reaction. Percent inhibition of FAK kinase activity was calculated by comparing compound containing wells to wells treated with diluent only. Background was subtracted from all wells and was defined as the activity of FAK using 500 ng/well of BSA as a substrate. IC50 values were obtained using Prism data analysis software.
# T1 sequence (P50613 with tags, fused parts or gaps): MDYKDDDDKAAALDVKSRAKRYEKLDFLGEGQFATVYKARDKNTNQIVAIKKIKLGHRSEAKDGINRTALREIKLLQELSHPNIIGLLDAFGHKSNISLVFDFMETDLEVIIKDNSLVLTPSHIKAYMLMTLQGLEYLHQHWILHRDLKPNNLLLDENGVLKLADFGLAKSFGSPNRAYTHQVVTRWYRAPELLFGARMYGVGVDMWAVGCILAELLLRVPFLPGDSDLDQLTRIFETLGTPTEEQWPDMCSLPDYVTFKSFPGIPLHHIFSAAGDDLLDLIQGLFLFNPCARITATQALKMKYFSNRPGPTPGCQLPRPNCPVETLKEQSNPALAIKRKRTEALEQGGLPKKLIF
# T1 sequence (as listed by the source partner): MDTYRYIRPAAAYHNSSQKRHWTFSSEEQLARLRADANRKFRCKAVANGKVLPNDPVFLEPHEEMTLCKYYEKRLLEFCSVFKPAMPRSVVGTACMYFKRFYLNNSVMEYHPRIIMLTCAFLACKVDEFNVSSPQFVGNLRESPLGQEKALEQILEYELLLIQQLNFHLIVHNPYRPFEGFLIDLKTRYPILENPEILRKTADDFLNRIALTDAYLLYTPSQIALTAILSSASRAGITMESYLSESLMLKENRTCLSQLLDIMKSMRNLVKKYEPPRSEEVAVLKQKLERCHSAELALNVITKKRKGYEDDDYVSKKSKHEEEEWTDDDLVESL
# T2 sequence (Q05397 whole entry): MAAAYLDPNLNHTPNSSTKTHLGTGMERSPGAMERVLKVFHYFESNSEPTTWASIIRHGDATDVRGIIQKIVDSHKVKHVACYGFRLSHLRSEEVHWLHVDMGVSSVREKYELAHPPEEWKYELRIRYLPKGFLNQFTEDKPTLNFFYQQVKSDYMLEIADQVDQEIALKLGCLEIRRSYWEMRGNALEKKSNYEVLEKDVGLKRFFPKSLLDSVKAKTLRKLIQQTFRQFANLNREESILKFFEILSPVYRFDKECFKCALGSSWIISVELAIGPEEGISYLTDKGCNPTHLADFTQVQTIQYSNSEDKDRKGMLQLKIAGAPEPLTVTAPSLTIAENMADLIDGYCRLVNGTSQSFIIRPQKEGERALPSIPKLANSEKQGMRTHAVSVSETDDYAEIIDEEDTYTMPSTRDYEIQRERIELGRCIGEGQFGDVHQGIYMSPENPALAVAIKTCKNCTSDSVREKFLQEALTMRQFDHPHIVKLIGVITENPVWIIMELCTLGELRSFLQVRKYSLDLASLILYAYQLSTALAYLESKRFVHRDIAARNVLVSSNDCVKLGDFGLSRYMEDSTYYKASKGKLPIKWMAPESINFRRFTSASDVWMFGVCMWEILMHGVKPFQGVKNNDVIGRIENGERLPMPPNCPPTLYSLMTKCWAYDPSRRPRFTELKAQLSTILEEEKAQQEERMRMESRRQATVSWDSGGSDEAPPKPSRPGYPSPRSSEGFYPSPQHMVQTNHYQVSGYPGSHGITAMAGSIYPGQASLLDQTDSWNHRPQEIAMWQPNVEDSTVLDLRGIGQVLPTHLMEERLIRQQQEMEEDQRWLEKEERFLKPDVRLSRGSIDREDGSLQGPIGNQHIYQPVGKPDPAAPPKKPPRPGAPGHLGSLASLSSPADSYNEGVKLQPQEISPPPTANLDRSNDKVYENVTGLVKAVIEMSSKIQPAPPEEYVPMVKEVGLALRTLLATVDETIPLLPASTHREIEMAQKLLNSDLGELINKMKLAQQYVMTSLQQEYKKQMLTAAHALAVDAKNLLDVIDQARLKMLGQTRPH
Structure (SMILES),inhibition at 20 µM [1],"inhibition at 10 µM ([2]; compound 10 uM, ATP 2 uM)",inhibition at 10 µM [2]
"COc1cc(Nc2ncc3nnn(-c4cc(OC)c(OC)c(OC)c4)c3n2)cc(OC)c1OC [Compound 42, (3,4,5-Trimethoxy-phenyl)-[3-(3,4,5-trimethoxy-phenyl)-3H-[1,2,3]triazolo[4,5-d]pyrimidin-5-yl]-amine]",3.4%,35.6%,–
"O=C(NCCN1CCOCC1)c1cccc(Nc2ncc3nnn(-c4ccc5c(c4)CCC5)c3n2)c1 [Compound 73, 3-(3-Indan-5-yl-3H-[1,2,3]triazolo[4,5-d]pyrimidin-5-ylamino)-N-(2-morpholin-4-yl-ethyl)-benzamide]",47.5%,31.2%,–
"CN(C)CC(O)COc1ccc(Nc2ncc3nnn(-c4ccc5ncccc5c4)c3n2)cc1 (stereo not drawn) [Compound 13, 1-Dimethylamino-3-[4-(3-quinolin-6-yl-3H-[1,2,3]triazolo[4,5-d]pyrimidin-5-ylamino)-phenoxy]-propan-2-ol]",72.6%,24.4%,–
"CN1CCN(CCCNC(=O)c2ccc(Nc3ncc4nnn(-c5ccc6c(c5)CCC6)c4n3)cc2)CC1 [Compound 78, 4-(3-Indan-5-yl-3H-[1,2,3]triazolo[4,5-d]pyrimidin-5-ylamino)-N-[3-(4-methyl-piperazin-1-yl)-propyl]-benzamide]",89%,72%,–
"c1cc(OCCCN2CCCC2)ccc1Nc1ncc2nnn(-c3ccc4c(c3)CCC4)c2n1 [Compound 92, (3-Indan-5-yl-3H-[1,2,3]triazolo[4,5-d]pyrimidin-5-yl)-[4-(3-pyrrolidin-1-yl-propoxy)-phenyl]-amine]",103%,91.2%,–
"CCOP(=O)(Cc1ccc(Nc2ncc3nnn(-c4ccc5c(c4)CCC5)c3n2)cc1)OCC [Compound 24, [4-(3-Indan-5-yl-3H-[1,2,3]triazolo[4,5-d]pyrimidin-5-ylamino)-benzyl]-phosphonic acid diethyl ester]",24.7%,–,34%
"c1ccc(-c2cccc(Nc3ncc4nnn(-c5ccc6c(c5)CCC6)c4n3)c2)cc1 [Compound 23, Biphenyl-3-yl-(3-indan-5-yl-3H-[1,2,3]triazolo[4,5-d]pyrimidin-5-yl)-amine]",43.5%,13%,–
"CCN(CC)CCNC(=O)c1ccc(Nc2ncc3nnn(C4CCCC4)c3n2)cc1 [Compound 68, 4-(3-Cyclopentyl-3H-[1,2,3]triazolo[4,5-d]pyrimidin-5-ylamino)-N-(2-diethylamino-ethyl)-benzamide]",63.8%,56.5%,–
"CN(C)CC(O)COc1ccc(Nc2ncc3nnn(-c4ccccc4)c3n2)cc1 (stereo not drawn) [Compound 8, 1-Dimethylamino-3-[4-(3-phenyl-3H-[1,2,3]triazolo[4,5-d]pyrimidin-5-ylamino)-phenoxy]-propan-2-ol]",92.2%,77.4%,–
NS(=O)(=O)c1cccc(Nc2ncc3nnn(-c4cccc(S(N)(=O)=O)c4)c3n2)c1 [Compound 47],51.3%,63.6%,–
"O=C(NCCN1CCOCC1)c1ccc(Nc2ncc3nnn(-c4ccc5c(c4)CCC5)c3n2)cc1 [Compound 76, 4-(3-Indan-5-yl-3H-[1,2,3]triazolo[4,5-d]pyrimidin-5-ylamino)-N-(2-morpholin-4-yl-ethyl)-benzamide]",10.2%,34.7%,–
"CCCCNS(=O)(=O)c1cccc(-n2nnc3cnc(Nc4ccc(N5CCN(Cc6ccccc6)CC5)cc4)nc32)c1 [Compound 50, 3-{5-[4-(4-Benzyl-piperazin-1-yl)-phenylamino]-[1,2,3]triazolo[4,5-d]pyrimidin-3-yl]-N-butyl-benzene-sulfonamide]",31.7%,48.4%,–
"c1cc(Nc2ncc3nnn(C4CCCC4)c3n2)cc(-c2nnn[nH]2)c1 [Compound 67, (3-Cyclopentyl-3H-[1,2,3]triazolo[4,5-d]pyrimidin-5-yl)-[3-(1H-tetrazol-5-yl)-phenyl]-amine]",44.2%,15.4%,–
"CCN(CC)CCNC(=O)c1ccc(-n2nnc3cnc(Nc4ccc(N5CCN(Cc6ccccc6)CC5)cc4)nc32)cc1 [Compound 53, 4-{5-[4-(4-Benzyl-piperazin-1-yl)-phenylamino]-[1,2,3]triazolo[4,5-d]pyrimidin-3-yl}-N-(2-diethylamino-ethyl)-benzamide]",43.7%,60.5%,–
"CNC(=O)c1cccc(-n2nnc3cnc(Nc4cccc(-c5ccnc(C)n5)c4)nc32)c1 [Compound 40, N-Methyl-3-{5-[3-(2-methyl-pyrimidin-4-yl)-phenylamino]-[1,2,3]triazolo[4,5-d]pyrimidin-3-yl}-benzamide]",-2.21%,6.99%,–
"O=C(NCCCN1CCCC1)c1ccc(Nc2ncc3nnn(-c4ccc5c(c4)CCC5)c3n2)cc1 [Compound 75, 4-(3-Indan-5-yl-3H-[1,2,3]triazolo[4,5-d]pyrimidin-5-ylamino)-N-(3-pyrrolidin-1-yl-propyl)-benzamide]",84%,77.9%,–
"CCOC(=O)/C=C/c1ccc(Nc2ncc3nnn(-c4ccc5c(c4)CCC5)c3n2)cc1 [Compound 28, 3-[4-(3-Indan-5-yl-3H-[1,2,3]triazolo[4,5-d]pyrimidin-5-ylamino)-phenyl]-acrylic acid ethyl ester]",54.7%,16%,–
CCCCNS(=O)(=O)c1cccc(-n2nnc3cnc(Nc4ccc(C(=O)NCCN(CC)CC)cc4)nc32)c1 [Compound 49],44.6%,99.5%,–
